Experimental data published in the OPERA property sets (Mansouri et al. 2018).

Conditions: not given

| SMILES | logP |
| --- | --- |
| CCOC(=O)NC1=NCC(c2ccc(F)cc2)N1C (configuration not stated) | 1.9 |
| CCCCC(NC(Cc1ccccc1)C(=O)N1CCC(OCOC)CC1)C(=O)NC(CC1CCCCC1)C(O)CC(C(=O)NCCCN1CCOCC1)C(C)C (configuration not stated) | 4.5 |
| C[C@@H]1O[C@@H](O[C@@H]2C=C3CC[C@@H]4[C@H](CC[C@]5(C)[C@@H](c6ccc(=O)oc6)CC[C@]45O)[C@@]3(C)CC2)[C@H](O)[C@H](O)[C@H]1O | 2.48 |
| CC(=O)NN1CC=CCC1 | 0.52 |
| Nc1ncn(C2OC(CO)C(O)C2O)c(=O)n1 (configuration not stated) | -2.17 |
| CCCCCCCCCCCCOC(=O)N(C)SN(C)C(=O)Oc1ccc2c(c1)OCO2 | 7.39 |
| ClC(Cl)Br | 2 |
| O=c1c2ccccc2nc2n1CCCCC2 | 2 |
| CCC(O)C(CC(C)N(C)C)(c1ccccc1)c1ccccc1 (configuration not stated) | 4.27 |
| CCOC(=O)Nc1ccc2c(c1)N(C(=O)CCN1CCOCC1)c1ccccc1S2 | 2.98 |
| Cc1ccc2nc3c(c(=O)n2c1)CCC3 | 1.63 |
| Cc1cc(N)ccc1C(=O)O | 1.14 |
| NC12CCCCC1c1ccccc1C2 (configuration not stated) | 2.94 |
| CCCc1ccc(OCC(OC(=S)n2ccnc2)C(C)(C)C)cc1 (configuration not stated) | 5.77 |
| CCc1ccc(OCC(OC(=O)n2ccnc2)C(C)(C)C)cc1 (configuration not stated) | 4.1 |
| Clc1ccncc1 | 1.28 |
| CCOC(=O)C=C1NC(=O)C(N2CCCCC2)S1 (configuration not stated) | 2.34 |
| CCN(CC)C(=O)c1ccccc1C | 2.02 |
| Cc1c(O)c(=O)ccn1CCC(=O)NC(C)C | -0.47 |
| Nc1ccn(C2OC(CO)CC2F)c(=O)n1 (configuration not stated) | -1.18 |
| COC(=O)C1CC2C3CCC4=CC(=O)C=CC4(C)C3C(O)CC2(C)C1C(=O)CO (configuration not stated) | 1.7 |
| COc1cccc2c1C(=O)c1c(O)c3c(c(O)c1C2=O)CC(O)(C(C)=O)CC3OC1CC(NC(=O)CN(C)C)C(O)C(C)O1 (configuration not stated) | 1.26 |
| CN(C)CCN1C(=O)c2ccccc2Nc2cc(Cl)ccc21 | 3.73 |
| CC1CCCc2ncc(C(N)=O)c(=O)n21 (configuration not stated) | 0.04 |
| CC=COCC(O)Cn1ccnc1[N+](=O)[O-] (configuration not stated) | 0.28 |
| O=C(O)CCCCOc1cccc2ccccc12 | 4 |

| SMILES | logP |
| --- | --- |
| COc1ccc(C(=O)CCCC(=O)O)cc1 | 1.63 |
| Cc1ccc2nccc(=O)n2c1 | 0.61 |
| CC1c2nc3ccccc3c(=O)n2CN1c1ccccc1 (configuration not stated) | 1.79 |
| CCOc1cccc(-c2nnc(C)n(NC)c2=O)c1 | 1.91 |
| NC(=O)NCCCCCCn1nc(-c2ccccc2)ccc1=O | 1.82 |
| Nc1c(Cl)c(Cl)c(Cl)c(Cl)c1Cl | 4.82 |
| CCOC(=O)n1c(NC(=O)OC)nc2cc(C(=O)c3ccccc3)ccc21 | 2.93 |
| O=C(O)c1cc([N+](=O)[O-])cc([N+](=O)[O-])c1O | 1.71 |
| Cc1cccn2c(=O)ccnc12 | 0.79 |
| CN1CC(C)(C)C(=O)c2ccccc21 | 2.72 |
| CCCC(=NOCC)C1C(=O)CC(c2ccccc2)(c2ccccc2)OC1=O (configuration not stated) | 4.75 |
| CC(=O)c1ccc2c(c1)N(CCCN1CCN(CCO)CC1)c1ccccc1S2 | 2.62 |
| OCCN(CCO)CCCc1ccc(CSc2ccccc2)cc1 | 3.31 |
| CCNC1C2CCC(C2)C1c1ccccc1 (configuration not stated) | 3.2 |
| CCOC(=O)C1(c2ccccc2)CCN(C)CC1 | 2.72 |
| Cc1ccc(CC#N)cc1 | 1.67 |
| Cc1ccn2c(=O)ccnc2c1 | 0.56 |
| COC(=O)n1cc(CC(NC(=O)CC2NC(=O)C3C4CCC(CC4)N3C2=O)C(=O)NC(Cc2ccccc2)C(=O)N(C)Cc2ccccc2)c2ccccc21 (configuration not stated) | 4.05 |
| O=C1N[C@@H](Cc2ccccc2)C(=O)N[C@H]1Cc1ccccc1 | 1.59 |
| Cc1c(O)c(=O)ccn1C(C)C | 0.05 |
| O=C1C[N+]([O-])=C(c2ccccc2)c2cc(Cl)ccc2N1CCO | 0.82 |
| CCCCCN(C)C(=O)c1cccc(Oc2ccccc2)c1 | 4.43 |
| CCCNC(=O)c1ccco1 | 1.1 |
| Nc1ccc(C(=O)O)c(O)c1 | 0.89 |
| Cc1nc(N)sc1C(=O)CCN1CCCCC1 | 2.13 |

Same assay, conditions: pH 7.4

| SMILES | logD |
| --- | --- |
| COc1ccc2c3c1O[C@H]1[C@@H](O)C=C[C@H]4[C@@H](C2)N(C)CC[C@@]341.O=P(O)(O)O | -1.4 |
